Tests used:
MCF-7 cells = test: MTT assay; type: cell-based, human; settings: 24 h
Protocol: MTT was used to determine effects of polyphenols on overall proliferation of tumor cells. Human breast MCF-7 cells were plated in a 96 well plate and grown to 70-80% confluency, followed by addition of analogs for 24 h. MTT (1 mg/ml) in PBS was then added to wells and incubated at 37° C. for 4 hours to allow for complete cleavage of the tetrazolium salt by metabolically active cells. Next, the MTT was removed and 100 μl of DMSO was added and colorimetric analysis performed using a multilabel plate reader at 560 nm (Victor^3; Perkin Elmer). Absorbance values plotted are the mean from triplicate experiments.
Treated breast cancer (MCF-7) cells were then treated with 5 or 25 μM of peracetate-protected analogs for 24 h, followed by MTT analysis to determine their effects on cell proliferation. Compound 1 at 25 μM inhibited cellular proliferation by 40% (FIG. 11A).

Jurkat T cells [1] = test: Western blot for PARP cleavage in Jurkat T cells; type: cell-based, human; settings: 25 μM, 24 h
Protocol: (§1) Whole cells extracts were prepared as described previously (An B, Goldfarb R H, Siman R, Dou Q P. Novel dipeptidyl proteasome inhibitors overcome Bc1-2 protective function and selectively accumulate the cyclin-dependent kinase inhibitor p27 and induce apoptosis in transformed, but not normal, human fibroblasts. Cell Death Differ 1998; 5: 1062-75.). Analysis of Bax, IKBa, p27, PAW, and ubiquitinated protein expression were performed using monoclonal or polyclonal antibodies according to previously reported protocols (An B et. al.).
(§2) It has been shown that proteasome inhibition can induce apoptosis in a wide variety of cancer cells, but not in normal, non-transformed cells (An B et al). Jurkat T cells are treated with 25 μM of each of the selected polyphenols and their protected analogs for 24 h to investigate their abilities to induce apoptotic cell death. […] The unprotected 2 induced much less apoptosis (21%), while 25 μM VP-16, used as a positive control, induced 92% apoptosis (FIGS. 10C and 10D). Counterstain with DAPI, which binds to the minor groove in A-T rich regions of DNA, was decreased drastically in apoptotic cells (FIG. 10C), consistent with DNA fragmentation in late stage apoptosis.
To determine if the cell death observed (FIG. 16) was due to the induction of apoptosis, a similar experiment was performed in Jurkat T cells, followed by measurement of caspase-3 activation and PARP cleavage.

Jurkat T cells [2] = test: Trypan blue cell death assay in Jurkat T cells; type: cell-based, human; settings: 25 μM, 24 h
[3] = tested on: ubiquitinated proteins, Bax, p27, IκBα in Jurkat T cells; test: Western blot for ubiquitinated proteins and proteasome targets (Bax, p27, IκBα) in Jurkat T cells; type: cell-based, human; settings: 25 μM, 24 h
Protocol: as §1
To determine what effects the synthetic tea analogs had on the proteasome in vivo, Jurkat cells were treated with 25 μM of each synthetic compound for either 4 or 24 h, with (−)-EGCG as a control (FIGS. 9A and 9B). […] This is consistent with the idea that protected analogs are potent inhibitors of the proteasome at an earlier time point and that after 24 h of treatment the ubiquitinated proteins are being depleted by deubiquitinating enzymes. […] The putative ubiquitinated IκBα band is still found in cells treated with 2a, 3a, and 4a (FIG. 9B, Lanes 9, 5, 7). The presumed ubiquinated IκBα band is now absent in the 24 h treatment, possibly due to deubiquitination (FIG. 9B). Actin was used as a loading control in this experiment.
The pro-apoptotic protein Bax and the cyclin-dependent kinase inhibitor p27 are natural proteasome targets. If the peracetate-protected polyphenols inhibit the intact proteasome activity, we would expect accumulation of Bax and p27 in these cells. To test this idea, Jurkat T cells were treated with both protected and unprotected compounds and lysates were analyzed by Western blot using specific antibodies to Bax and p27 (FIG. 15). After 4 h of treatment, the peracetate-protected analogs 24* and 19*, but not their unprotected analogs, were able to increase accumulation of both Bax (by 3- and 2.5-fold, respectively) and p27 (6- and 11-fold, respectively) (FIG. 15A). After 24 h treatment, Bax levels were increased in cells treated with all of the peracetate-protected compounds (13-, 12-, 40- and 36-fold, respectively, by 24*, 19*, 21* and 23*).

YT cells = test: Western blot in non-transformed natural killer YT cells compared with Jurkat T cells; type: cell-based, human; settings: 25 μM, 24 h
[4] = tested on: ubiquitin-conjugated proteins in LNCaP cells; test: Western blot for ubiquitin-conjugated proteins in LNCaP cells; type: cell-based, human; settings: 25 μM, 24 h
Protocol: as §1
To determine if acetate-protected analogs are potent proteasome inhibitors in other cancer cell systems, prostate cancer LNCaP cells were treated for 24 h with 25 μM of (−)-EGCG, 1, 2a, or 3a, with DMSO as a control.

LNCaP cells [5] = test: Apoptotic morphological changes, phase contrast; type: cell-based, human; settings: 25 μM, 24 h
LNCaP cells [6] = test: Soft agar colony formation assay; type: cell-based, human; settings: 25 μM once at plating, 21 days
[7] = target: T1, proteasome in VA-13 cells (Homo sapiens, UniProt P28074); test: Chymotrypsin-like proteasome activity in intact VA-13 cells; type: cell-based; settings: 25 μM, 24 h
T1 construct: endogenous in cells; host or cells: VA-13 (SV40-transformed human fibroblasts)
Protocol: VA-13 or WI-38 cells were grown in 24 well plates (2 ml/well) to 70-80% confluency, followed by 24 h treatment with […] (−)-EGCG, 2, or 2a. […] Suc-Leu-Leu-Val-Tyr-AMC substrate was then added for 2.5 h at 37° C. and the chyrnotrypsin-like activity was measured as described above. Alternatively, cells were treated with each compound at 25 μM for 4 or 24 h, and harvested and lysed. Suc-Leu-Leu-Val-Tyr-AMC (40 μM) was then incubated with the prepared cell lysates for 2.5 h and the chymotrypsin-like activity was measured as described above.
The ability to induce apoptosis in tumor cells, but not normal cells is an important measure for novel anti-cancer drugs. To determine whether the protected compounds also affect normal cells, both VA-13 and WI-38 cells were treated with 25 μM of (−)-EGCG, 2, or 2a for 24 h and examined proteasome activity, nuclear morphological changes, and detachment. A differential decrease was found in the chyrnotrypsin-like activity of the proteasome in VA-13 cells over normal WI-38 cells (FIG. 12A). […] Conversely, the proteasome activity in WI-38 cells was decreased by only −5% with all three polyphenol treatments.

VA-13 cells [8] = test: Nuclear staining (Hoechst) for apoptotic morphology, VA-13; type: cell-based, human; settings: 25 μM, 24 h
Protocol: After each drug treatment, both detached and attached VA-13 and WI-38 cells were stained Hoechst 33342 to assess for apoptosis. Briefly, cells were washed 2× in PBS, fixed for 1 h with 70% ethanol at 4° C., washed 3× in PBS, and stained with […] Hoechst for 30 min in the dark at room temperature. Detached cells were plated on a slide and attached cells were visualized on the plate with a fluorescent microscope at 10× or 40× resolution (Zeiss, Germany). Digital Scientific obtained images with AxioVision 4.1 and adjusted using Adobe Photoshop 6.0.
Next, apoptotic nuclear morphology is examined after treatment with natural (−)-EGCG, 2, and 2a (FIG. 12B). […] A comparison among all the protected analogs was then performed using 25 μM for 24 h. […] All of the protected analogs induced apoptosis in transformed (VA-13), but not normal (WI-38) cells (FIGS. 12B and 12C).

VA-13 cells [9] = test: Immunostaining of apoptotic cells with anti-cleaved PARP-FITC; type: cell-based, human; settings: 25 μM, 24 h
Protocol: Immunostaining of apoptotic cells was performed by addition of a FITC-conjugated polyclonal antibody that recognizes cleaved poly(ADP-ribose) polymerase (PARP) and visualized on an Axiovert 2 5 (Zeiss; Thornwood, N.Y.) microscope. Cells were grown to about 80% confluency in 60 mm dishes. VA-13 cells were then treated with VP-16, 2, or 2a (25 μM) for 24 h. Following treatment, both suspension and adhering cells were collected and washed twice in PBS pH 7.4. The cells were washed between all steps listed below and all washes are 1 min duration with PBS. Cells were then fixed in ice-cold 70% ethanol, permeabilized in 0.1% Triton-X-100 and blocked for 30 min in 1% bovine serum albumin (BSA) at room temperature. Incubation with the primary FITC-conjugated-p85/PARP antibody was for 30 min at 4° C. in the dark with mild shaking. Cell suspension was then transferred to glass slides in the presence of Vector Shield mounting medium with DAPI. Images were captured using AxioVision 4.1 and adjusted using Adobe Photoshop 6.0 software. Cell death was quantified by counting the number of apoptotic cells over the total number of cells in the same field. Data are mean of duplicate experiments ±SD.
as §2

SMILES	inhibition of cellular proliferation (MCF-7 cells; 5 μM)	inhibition of cellular proliferation (MCF-7 cells; 25 μM)	apoptosis-specific PARP cleavage (Jurkat T cells [1])	cell death (trypan blue) (Jurkat T cells [2])	accumulation of p27 [3]	apoptosis (PARP cleavage), Jurkat T versus YT cells (YT cells)	ubiquitin-conjugated proteins [4]	apoptotic morphological changes (LNCaP cells [5])	colony formation in soft agar (LNCaP cells [6])	decrease in proteasome chymotrypsin-like activity [7]	apoptotic nuclear morphology (VA-13 cells [8])	apoptotic cells (p85 cleaved PARP) (VA-13 cells [9])
CC(=O)Oc1cccc(C(=O)O[C@@H]2Cc3c(OC(C)=O)cc(OC(C)=O)cc3O[C@H]2c2cc(OC(C)=O)c(OC(C)=O)c(OC(C)=O)c2)c1 (relative stereo) [Compound 2a, (2S*,3R*)-trans-5,7-Bis(acetyloxy)-2-[3,4,5-tris(acetyloxy)phenyl]chroman-3-yl 3-acetyloxybenzoate]	50%	70%	induced apoptosis-specific PARP cleavage	99%	Accumulation of p27	only Jurkat cells underwent apoptosis	greatest increase	dramatic round-up, detachment, and cellular fragmentation	most potent inhibitors of colony formation	92%	markedly induced apoptosis	73%
CC(=O)Oc1ccc(C(=O)O[C@@H]2Cc3c(OC(C)=O)cc(OC(C)=O)cc3O[C@H]2c2cc(OC(C)=O)c(OC(C)=O)c(OC(C)=O)c2)cc1 (relative stereo) [Compound 3a, (2S*,3R*)-trans-5,7-Bis(acetyloxy)-2-[3,4,5-tris(acetyloxy)phenyl]chroman-3-yl 4-(acetyloxy)benzoate]	50%	70%	induced apoptosis-specific PARP cleavage	57%	Accumulation of p27	–	greatest increase	dramatic round-up, detachment, and cellular fragmentation	–	–	–	–

— patent US8193377B2, “(−)-epigallocatechin gallate derivatives for inhibiting proteasome” (The Hong Kong Polytechnic University, priority 2004, dated 2012)
